# Results: ChEMBL document CHEMBL4396891, “Recent update on anti-dengue drug discovery” (Eur J Med Chem, 2019)
# Experiments:
# [1] = tested on: dengue virus type 2; assay: Antiviral activity against DENV2; assay type: functional, organism-based
# [2] = target: T1, Nonstructural protein 5 (Dengue virus, UniProt V5TFZ2); assay: Inhibition of His-tagged DENV2 NS5 RNA dependent RNA polymerase expressed in baculovirus infected sf9 cells; set-up: species or system dengue virus type 2
# [3] = target: T1, Nonstructural protein 5; assay: Inhibition of His-tagged DENV2 NS5 RNA dependent RNA polymerase; set-up: species or system dengue virus type 2
# [4] = tested on: dengue virus type 2; assay: Antiviral activity against DENV2 infected in BHK-21 cells assessed as reduction in viral production; assay type: functional, organism-based
# [5] = tested on: dengue virus type 1; assay: Antiviral activity against DENV1 FGA/89 infected in human Huh7.5 cells after 72 hrs by flow cytometric analysis; assay type: functional, organism-based; settings: FGA/89, Huh7.5, 72 h
# [6] = tested on: dengue virus type 2; assay: Antiviral activity against DENV2 ICC265 infected in human Huh7.5 cells after 72 hrs by flow cytometric analysis; assay type: functional, organism-based; settings: ICC265, Huh7.5, 72 h
# [7] = tested on: dengue virus type 3; assay: Antiviral activity against DENV3 5532 infected in human Huh7.5 cells after 72 hrs by flow cytometric analysis; assay type: functional, organism-based; settings: Dengue virus, 5532, Huh7.5, 72 h
# [8] = tested on: dengue virus type 4; assay: Antiviral activity against DENV4 TVP360 infected in human Huh7.5 cells after 72 hrs by flow cytometric analysis; assay type: functional, organism-based; settings: TVP360, Huh7.5, 72 h
# [9] = tested on: dengue virus type 2; assay: Antiviral activity against DENV2 infected in monkey LLC-MK2 cells; assay type: functional, organism-based
# [10] = tested on: dengue virus type 2; assay: Antiviral activity against DENV2 New Guinea C infected in human Huh7 cells assessed as reduction in viral titer after 3 to 4 days by MTT assay; assay type: functional, organism-based; settings: Huh-7
# [11] = tested on: dengue virus type 2; assay: Antiviral activity against DENV2 infected in BHK-21 cells assessed as viral titer by plaque assay; assay type: functional, organism-based
# [12] = tested on: dengue virus type 2; assay: Antiviral activity against DENV2 infected in monkey LLC-MK2 cells assessed as reduction in plaque formation after 72 hrs by 96-well based plaque titration method; assay type: functional, organism-based; settings: LLC-MK2, 72 h
# [13] = tested on: dengue virus type 2; assay: Antiviral activity against DENV2 infected in African green monkey Vero cells assessed as reduction in plaque formation after 72 hrs by 96-well based plaque titration method; assay type: functional, organism-based
# [14] = tested on: dengue virus type 2; assay: Antiviral activity against DENV2 infected in BHK-21 cells assessed as viral replication after 24 to 48 hrs by luciferase reporter gene assay; assay type: functional, organism-based
# [15] = target: T1, Nonstructural protein 5; assay: Inhibition of DENV2 2'-O-methyltransferase using m7G*pppA-RNA as substrate; set-up: species or system dengue virus type 2
# [16] = target: T1, Nonstructural protein 5; assay: Inhibition of DENV3 2'-O-methyltransferase using m7G*pppA-RNA as substrate; set-up: species or system dengue virus type 3
# [17] = Inhibition of DENV2 N7-methyltransferase using G*pppA-RNA as substrate; set-up: species or system dengue virus type 2
# [18] = Inhibition of DENV3 N7-methyltransferase using G*pppA-RNA as substrate; set-up: species or system dengue virus type 3
# [19] = tested on: dengue virus type 1; assay: Antiviral activity against DENV1; assay type: functional, organism-based
# [20] = tested on: dengue virus type 3; assay: Antiviral activity against DENV3; assay type: functional, organism-based
# [21] = tested on: dengue virus type 4; assay: Antiviral activity against DENV4; assay type: functional, organism-based
# [22] = tested on: dengue virus type 2; assay: Antiviral activity against DENV2 infected in BHK-21 cells; assay type: functional, organism-based
# [23] = tested on: dengue virus type 1; assay: Antiviral activity against DENV1 FGA/89 infected in human Huh7.5 cells after 72 hrs; assay type: functional, organism-based; settings: FGA/89, Huh7.5, 72 h
# [24] = tested on: dengue virus type 2; assay: Antiviral activity against DENV2 ICC-265 infected in human Huh7.5 cells after 72 hrs; assay type: functional, organism-based; settings: ICC-265, Huh7.5, 72 h
# [25] = tested on: dengue virus type 3; assay: Antiviral activity against DENV3 97 infected in human Huh7.5 cells after 72 hrs; assay type: functional, organism-based; settings: Dengue virus, 97, Huh7.5, 72 h
# [26] = tested on: dengue virus type 4; assay: Antiviral activity against DENV4 TVP360 infected in human Huh7.5 cells after 72 hrs; assay type: functional, organism-based; settings: TVP360, Huh7.5, 72 h
# [27] = tested on: dengue virus type 1; assay: Antiviral activity against DENV1 after 48 hrs by focus reduction assay; assay type: functional, organism-based
# [28] = tested on: dengue virus type 2; assay: Antiviral activity against DENV2 after 48 hrs by focus reduction assay; assay type: functional, organism-based
# [29] = tested on: dengue virus type 3; assay: Antiviral activity against DENV3 after 48 hrs by focus reduction assay; assay type: functional, organism-based
# [30] = tested on: dengue virus type 4; assay: Antiviral activity against DENV4 after 48 hrs by focus reduction assay; assay type: functional, organism-based
# [31] = tested on: dengue virus type 2; assay: Antiviral activity against DENV2 infected in human HepG2 cells; assay type: functional, organism-based
# [32] = tested on: dengue virus type 2; assay: Antiviral activity against DENV2 infected in BHK cells assessed as reduction in viral yield after 24 ro 48 hrs by luciferase reporter gene assay; assay type: functional, organism-based
# [33] = tested on: dengue virus type 2; assay: Antiviral activity against DENV2 Martinique infected in African green monkey Vero E6 cells after 3 to 4 days by RT-PCR analysis; assay type: functional, organism-based; settings: Vero C1008
# [34] = target: T1, Nonstructural protein 5; assay: Inhibition of N-terminal His6-tagged DENV3 NS5 RNA dependent RNA polymerase (272 to 900 residues) after 1 hr by fluorescence assay; set-up: species or system dengue virus type 3
# [35] = tested on: dengue virus type 4; assay: Antiviral activity against DENV4 Dakar infected in African green monkey Vero E6 cells after 3 to 4 days by RT-PCR analysis; assay type: functional, organism-based; settings: Vero C1008
# [36] = tested on: dengue virus type 3; assay: Antiviral activity against DENV3 Bolivia infected in African green monkey Vero E6 cells after 3 to 4 days by RT-PCR analysis; assay type: functional, organism-based; settings: Vero C1008
# [37] = tested on: dengue virus type 1; assay: Antiviral activity against DENV1 Djibouti infected in African green monkey Vero E6 cells after 3 to 4 days by RT-PCR analysis; assay type: functional, organism-based; settings: Vero C1008
compound,measurement,setting,value
CCOC(=O)c1cnn(-c2ccccc2)c1N(S(=O)(=O)c1ccc([N+](=O)[O-])cc1)S(=O)(=O)c1ccc([N+](=O)[O-])cc1,EC50,[1],5.7 µM
same,EC50,[2],0.013 µM
same,EC50,[3],4.9 µM
Cc1cc(N2CCN(C)CC2)ccc1NC(=O)c1c2c(nc3ccccc13)CCN(Cc1ccccc1)C2,EC50,[4],5 µM
O=C1C[C@@H](c2ccc(O)cc2)Oc2cc(O)cc(O)c21 [NARINGENIN],EC50,[5],35.8 to 178 µM
same,EC50,[6],35.8 to 178 µM
same,EC50,[7],35.8 to 178 µM
same,EC50,[8],35.8 to 178 µM
C=C(C)[C@@H]1CC[C@]2(C)CC[C@]3(C)[C@H](CC[C@@H]4[C@@]5(C)CC[C@H](O)C(C)(C)[C@@H]5CC[C@]43C)[C@@H]12 [LUPEOL],EC50,[9],9.77 µM
COc1cc(/C(C#N)=C/c2cc3ccccc3[nH]2)cc(OC)c1OC,EC50,[10],8.12 µM
C#Cc1cccc(Nc2ncnc3cc(OCCOC)c(OCCOC)cc23)c1 [ERLOTINIB],EC50,[11],4.07 µM
COc1cc2c(c(O)c1C)C(=O)CC(c1ccccc1)O2 (stereo not given) [STROBOPININ-7-METHYLETHER],EC50,[12],3.72 µM
same,EC50,[13],12.3 µM
CCN(CC)CCNC(=O)c1c(C)[nH]c(/C=C2\C(=O)Nc3ccc(F)cc32)c1C [SUNITINIB],EC50,[11],1.96 µM
CCN(CC)Cc1cc(Nc2ccnc3cc(Cl)ccc23)ccc1O [AMODIAQUINE],IC50,[14],1.08 µM
same,IC90,[14],2.69 µM
CC1=C(Nc2c(C)cc(O)cc2O)C(=O)C=c2oc3c(c21)C(C)=C(Nc1c(C)cc(O)cc1O)C(=O)C=3,IC50,[15],2.3 to 21 µM
same,IC50,[16],2.3 to 21 µM
same,IC50,[17],28 to 32 µM
same,IC50,[18],28 to 32 µM
Oc1cccc(Nc2nc(NCc3ccc(-c4ccccc4)cc3)nc3nc[nH]c23)c1,EC50,[1],2.8 µM
same,EC50,[19],1.38 to 2.19 µM
same,EC50,[20],1.38 to 2.19 µM
same,EC50,[21],1.38 to 2.19 µM
O=c1c(O)c(-c2ccc(O)c(O)c2)oc2cc(O)cc(O)c12 [QUERCETIN],IC50,[22],176 µg/mL
CCCCCCCCCCCCCCNCCNC(=O)C[C@]1(O)C[C@@H](O)[C@@H](O)[C@H](O)C1,IC50,[23],6.5 to 10.8 µM
same,IC50,[24],6.5 to 10.8 µM
same,IC50,[25],6.5 to 10.8 µM
same,IC50,[26],6.5 to 10.8 µM
C[C@H]1CCC/C=C/[C@@H]2C[C@H](O)C[C@H]2[C@H](O)/C=C/C(=O)O1 [BREFELDIN A],EC50,[27],54.6 to 65.7 µM
same,EC50,[28],54.6 to 65.7 µM
same,EC50,[29],54.6 to 65.7 µM
same,EC50,[30],54.6 to 65.7 µM
COc1ccc([C@@H]2CC(=O)c3c(O)cc(O[C@@H]4O[C@H](CO[C@@H]5OC[C@](O)(CO)[C@H]5O)[C@@H](O)[C@H](O)[C@H]4O)cc3O2)cc1,IC50,[31],13.1 µg/mL
CCN(CC)CCCC(C)Nc1c2ccc(Cl)cc2nc2ccc(OC)cc12 (stereo not given) [QUINACRINE],EC50,[32],5.3 µM
O=C(N[C@@H](Cc1ccc(O)cc1)C(=O)O)c1cc(-c2ccccc2)c(=O)n2c1sc1ccc(OC3CCCCC3)cc12,IC50,[33],6.8 to 15 µM
same,IC50,[34],1.5 µM
same,IC50,[35],6.8 to 15 µM
same,IC50,[36],6.8 to 15 µM
same,IC50,[37],6.8 to 15 µM
